Assay results reported in patent US8247211B2, “Glycopeptide antibiotics” (American Cyanamid Company, priority 2001, dated 2012).

Tests used:
Assay in all cases: In vitro antibacterial evaluation: minimum inhibitory concentration (MIC), broth dilution method
Format in all cases: cell-based
[1] = tested on: Streptococcus sp.
Outline: (§1)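 NCCLS M7-A2 broth dilution; Muller-Hinton II […]; 5×10^5 CFU/mL; 64-0.06 μg/mL. MIC = lowest concentration with no growth.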

[2] = tested on: Enterococcus sp.
Outline: as §1

[3] = tested on: Staphylococcus sp.; settings: broth dilution, 18 hours at 35° C.
Outline: as §1

[4] = tested on: Escherichia coli; settings: for MIC Escherichia coli (ATCC 25922): strain ATCC 25922; for MIC Escherichia coli (GC 4559): strain GC 4559; for MIC Escherichi coli (GC 4560): strain GC 4560
Outline: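 An MIC is reported for each organism as the least concentration giving inhibition, using broth dilution over 64-0.06 μg/mL with a 5×10^5 CFU/mL inoculum.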

[5] = broth dilution, inoculum 5×10^5 CFU/mL, 18 hours at 35° C.

CSc1ccc(C2OCC3OC(OC4C(CO)OC(Oc5ccc(CC6NC(=O)C(C(C)c7ccccc7)NC(=O)CNC(=O)C(CO)NC(=O)C(C(O)C7CNC(=N)N7C7OC(CO)C(O)C(O)C7O)NC(=O)C(C(O)C7CNC(=N)N7)NC6=O)cc5)C(O)C4O)C(O)C(O)C3O2)cc1[N+](=O)[O-] (stereo not drawn) [Example 168, Cyclo[glycyl-β-methylphenylalanyl-O-[4-O-[4,6-O-[4-(methylthio)-3-nitrobenzylidene]hexopyranosyl]hexopyranosyl]tyrosyl-3-(2-iminoimidazolidin-4-yl)seryl-3-(3-hexopyranosyl-2-iminoimidazolidin-4-yl)serylseryl]]
2 µg/mL: MIC Enterococcus avium (GC 4558) [2, 5] | MIC Enterococcus faecalis (ATCC 29212) [2, 5] | MIC Enterococcus faecalis (GC 2242) [2, 5] | MIC Enterococcus faecalis (GC 2691) [2, 5] | MIC Enterococcus faecalis (GC 3059) [2, 5] | MIC Enterococcus faecalis (GC 4552) [2, 5] | MIC Enterococcus faecalis (GC 4553) [2, 5] | MIC Enterococcus faecalis (GC 4554) [2, 5] | MIC Enterococcus faecalis (GC 6189) [2, 5] | MIC Enterococcus faecium (GC 2243) [2, 5] | MIC Enterococcus faecium (GC 4556) [2, 5] | MIC Enterococcus faecalis (ATCC 29212) ([2]; strain ATCC 29212) | MIC Enterococcus faecalis (GC 2242) ([2]; strain GC 2242) | MIC Enterococcus faecium (GC 2243) ([2]; strain GC 2243) | MIC Enterococcus faecalis (GC 2691) ([2]; strain GC 2691) | MIC Enterococcus faecalis (GC 3059) ([2]; strain GC 3059) | MIC Enterococcus faecalis (GC 4552) ([2]; strain GC 4552) | MIC Enterococcus faecalis (GC 4553) ([2]; strain GC 4553) | MIC Enterococcus faecalis (GC 4554) ([2]; strain GC 4554) | MIC Enterococcus faecium (GC 4556) ([2]; strain GC 4556) | MIC Enterococcus avium (GC 4558) ([2]; strain GC 4558) | MIC Enterococcus faecalis (GC 6189) ([2]; strain GC 6189) | MIC Coagulase Negative Staphylococcus (GC 4547) ([3]; 5×10^5 CFU/mL) | MIC Staphylococcus aureus (GC 4544) ([3]; 5×10^5 CFU/mL) | MIC Staphylococcus aureus (GC 4544) ([3]; strain GC 4544)
0.5 µg/mL: MIC Streptococcus pyogenes (GC 4563) [1, 5] | MIC Streptococcus pyogenes (GC 4563) ([1]; strain GC 4563) | MIC Coagulase Negative Staphylococcus (GC 4548) ([3]; 5×10^5 CFU/mL) | MIC Coagulase Negative Staphylococcus (GC 4549) ([3]; 5×10^5 CFU/mL) | MIC Staphylococcus haemolyticus (GC 4546) ([3]; 5×10^5 CFU/mL) | MIC Escherichi coli (GC 4560) [4]
16 µg/mL: MIC Escherichia coli (GC 4559) [4]
<0.12 µg/mL: MIC Streptococcus agalactiae (GC 4564) [1, 5] | MIC Streptococcus pneumoniae (ATCC 6301) [1, 5] | MIC Streptococcus pneumoniae (GC 1894) [1, 5] | MIC Streptococcus pneumoniae (GC 4565) [1, 5] | MIC Streptococcus pneumoniae (ATCC 6301) ([1]; strain ATCC 6301) | MIC Streptococcus pneumoniae (GC 1894) ([1]; strain GC 1894) | MIC Streptococcus agalactiae (GC 4564) ([1]; strain GC 4564) | MIC Streptococcus pneumoniae (GC 4565) ([1]; strain GC 4565)
1 µg/mL: MIC Enterococcus faecium (GC 4557) [2, 5] | MIC Enterococcus faecium (GC 4557) ([2]; strain GC 4557) | MIC Coagulase Negative Staphylococcus (GC 4551) ([3]; 5×10^5 CFU/mL) | MIC Staphylococcus aureus (ATCC 29213) ([3]; 5×10^5 CFU/mL) | MIC Staphylococcus aureus (GC 1131) ([3]; 5×10^5 CFU/mL) | MIC Staphylococcus aureus (GC 3051) ([3]; 5×10^5 CFU/mL) | MIC Staphylococcus aureus (GC 3053) ([3]; 5×10^5 CFU/mL) | MIC Staphylococcus aureus (GC 4541) ([3]; 5×10^5 CFU/mL) | MIC Staphylococcus aureus (GC 4542) ([3]; 5×10^5 CFU/mL) | MIC Staphylococcus aureus (GC 4545) ([3]; 5×10^5 CFU/mL) | MIC Staphylococcus aureus-SMITH (GC 4543) ([3]; 5×10^5 CFU/mL) | MIC Staphylococcus aureus (ATCC 29213) ([3]; strain ATCC 29213) | MIC Staphylococcus aureus (GC 1131) ([3]; strain GC 1131) | MIC Staphylococcus aureus (GC 3051) ([3]; strain GC 3051) | MIC Staphylococcus aureus (GC 3053) ([3]; strain GC 3053) | MIC Staphylococcus aureus (GC 4541) ([3]; strain GC 4541) | MIC Staphylococcus aureus (GC 4542) ([3]; strain GC 4542) | MIC Staphylococcus aureus (GC 4545) ([3]; strain GC 4545)
64 µg/mL: MIC Escherichia coli (ATCC 25922) [4]

COc1cc(C2OCC3OC(OC4C(CO)OC(Oc5ccc(CC6NC(=O)C(C(C)c7ccccc7)NC(=O)CNC(=O)C(CO)NC(=O)C(C(O)C7CNC(=N)N7C7OC(CO)C(O)C(O)C7O)NC(=O)C(C(O)C7CNC(=N)N7)NC6=O)cc5)C(O)C4O)C(O)C(O)C3O2)cc([N+](=O)[O-])c1O (stereo not drawn) [Example 169, Cyclo[glycyl-β-methylphenylalanyl-O-[4-O-[4,6-O-(4-hydroxy-3-methoxy-4-nitro-benzylidene)hexopyranosyl]hexopyranosyl]tyrosyl-3-(2-iminoimidazolidin-4-yl)seryl-3-(3-hexopyranosyl-2-iminoimidazolidin-4-yl)serylseryl]]
8 µg/mL: MIC Streptococcus pneumoniae (ATCC 6301) [1, 5] | MIC Streptococcus pneumoniae (GC 1894) [1, 5] | MIC Streptococcus pneumoniae (GC 4565) [1, 5] | MIC Streptococcus pneumoniae (ATCC 6301) ([1]; strain ATCC 6301) | MIC Streptococcus pneumoniae (GC 1894) ([1]; strain GC 1894) | MIC Streptococcus pneumoniae (GC 4565) ([1]; strain GC 4565) | MIC Coagulase Negative Staphylococcus (GC 6257) ([3]; 5×10^5 CFU/mL) | MIC Escherichi coli (GC 4560) [4]
32 µg/mL: MIC Streptococcus agalactiae (GC 4564) [1, 5] | MIC Streptococcus agalactiae (GC 4564) ([1]; strain GC 4564) | MIC Enterococcus faecium (GC 4557) [2, 5] | MIC Enterococcus faecium (GC 4557) ([2]; strain GC 4557) | MIC Coagulase Negative Staphylococcus (GC 4547) ([3]; 5×10^5 CFU/mL) | MIC Coagulase Negative Staphylococcus (GC 4548) ([3]; 5×10^5 CFU/mL) | MIC Staphylococcus aureus (ATCC 29213) ([3]; 5×10^5 CFU/mL) | MIC Staphylococcus aureus (GC 1131) ([3]; 5×10^5 CFU/mL) | MIC Staphylococcus aureus (GC 3051) ([3]; 5×10^5 CFU/mL) | MIC Staphylococcus aureus (GC 4541) ([3]; 5×10^5 CFU/mL) | MIC Staphylococcus aureus (GC 4542) ([3]; 5×10^5 CFU/mL) | MIC Staphylococcus aureus (GC 4544) ([3]; 5×10^5 CFU/mL) | MIC Staphylococcus aureus (GC 4545) ([3]; 5×10^5 CFU/mL) | MIC Staphylococcus aureus-SMITH (GC 4543) ([3]; 5×10^5 CFU/mL) | MIC Staphylococcus haemolyticus (GC 4546) ([3]; 5×10^5 CFU/mL) | MIC Staphylococcus aureus (ATCC 29213) ([3]; strain ATCC 29213) | MIC Staphylococcus aureus (GC 1131) ([3]; strain GC 1131) | MIC Staphylococcus aureus (GC 3051) ([3]; strain GC 3051) | MIC Staphylococcus aureus (GC 4541) ([3]; strain GC 4541) | MIC Staphylococcus aureus (GC 4542) ([3]; strain GC 4542) | MIC Staphylococcus aureus (GC 4544) ([3]; strain GC 4544) | MIC Staphylococcus aureus (GC 4545) ([3]; strain GC 4545)
16 µg/mL: MIC Streptococcus pyogenes (GC 4563) [1, 5] | MIC Streptococcus pyogenes (GC 4563) ([1]; strain GC 4563) | MIC Coagulase Negative Staphylococcus (GC 4549) ([3]; 5×10^5 CFU/mL)
>64 µg/mL: MIC Enterococcus avium (GC 4558) [2, 5] | MIC Enterococcus faecalis (ATCC 29212) [2, 5] | MIC Enterococcus faecalis (GC 2242) [2, 5] | MIC Enterococcus faecalis (GC 2691) [2, 5] | MIC Enterococcus faecalis (GC 3059) [2, 5] | MIC Enterococcus faecalis (GC 4552) [2, 5] | MIC Enterococcus faecalis (GC 4553) [2, 5] | MIC Enterococcus faecalis (GC 4554) [2, 5] | MIC Enterococcus faecalis (GC 6189) [2, 5] | MIC Enterococcus faecium (GC 2243) [2, 5] | MIC Enterococcus faecium (GC 4556) [2, 5] | MIC Enterococcus faecalis (ATCC 29212) ([2]; strain ATCC 29212) | MIC Enterococcus faecalis (GC 2242) ([2]; strain GC 2242) | MIC Enterococcus faecium (GC 2243) ([2]; strain GC 2243) | MIC Enterococcus faecalis (GC 2691) ([2]; strain GC 2691) | MIC Enterococcus faecalis (GC 3059) ([2]; strain GC 3059) | MIC Enterococcus faecalis (GC 4552) ([2]; strain GC 4552) | MIC Enterococcus faecalis (GC 4553) ([2]; strain GC 4553) | MIC Enterococcus faecalis (GC 4554) ([2]; strain GC 4554) | MIC Enterococcus faecium (GC 4556) ([2]; strain GC 4556) | MIC Enterococcus avium (GC 4558) ([2]; strain GC 4558) | MIC Enterococcus faecalis (GC 6189) ([2]; strain GC 6189) | MIC Coagulase Negative Staphylococcus (GC 4551) ([3]; 5×10^5 CFU/mL) | MIC Staphylococcus aureus (GC 3053) ([3]; 5×10^5 CFU/mL) | MIC Staphylococcus aureus (GC 3053) ([3]; strain GC 3053) | MIC Escherichia coli (ATCC 25922) [4] | MIC Escherichia coli (GC 4559) [4]
